ChEMBL document CHEMBL5380816, “Inclusion of Nitrofurantoin into the Realm of Cancer Chemotherapy via Biology-Oriented Synthesis and Drug Repurposing” (J Med Chem, 2023)
The source made the active and inactive calls. The rule behind the calls is not given here.

Legend:
Caco-2 [1] = assay: Anticancer activity against human Caco-2 cells assessed as absence of normal spindle shape incubated at 0.097uM for 72 hrs by phase contrast inverted microscopic analysis; assay type: functional, cell-based
HepG2 [2] = assay: Induction of apoptosis in human HepG2 cells assessed as late apoptotic cells by measuring orange to red patch incubated at 0.097 uM for 72 hrs by acridine orange-ethidium bromide dual staining based fluorescence microscopic analysis; assay type: functional, cell-based
MCF7 [3] = assay: Anticancer activity against human MCF7 cells assessed as cell shrinkage incubated at 0.097uM for 72 hrs by phase contrast inverted microscopic analysis; assay type: functional, cell-based
Caco-2 [4] = assay: Anticancer activity against human Caco-2 cells assessed as losing contact with neighbouring cells incubated at 0.097uM for 72 hrs by phase contrast inverted microscopic analysis; assay type: functional, cell-based
HepG2 [5] = assay: Anticancer activity against human HepG2 cells assessed as round cells incubated at 0.097uM for 72 hrs by phase contrast inverted microscopic analysis; assay type: functional, cell-based
HepG2 [6] = assay: Anticancer activity against human HepG2 cells assessed as cell shrinkage incubated at 0.097uM for 72 hrs by phase contrast inverted microscopic analysis; assay type: functional, cell-based
Caco-2 [7] = assay: Induction of oxidative stress in human Caco-2 cells assessed as cell death by measuring redox alteration fluorescence incubated at 0.017 uM for 72 hrs in presence of dihydro dichlorofluorescein diacetate by DCFH-DA based flow cytometric analysis relative to control; assay type: functional
HepG2 [8] = assay: Anticancer activity against human HepG2 cells assessed as absence of normal spindle shape incubated at 0.11 uM for 72 hrs by phase contrast inverted microscopic analysis; assay type: functional, cell-based
Caco-2 [9] = assay: Anticancer activity against human Caco-2 cells assessed as round cells incubated at 0.11 uM for 72 hrs by phase contrast inverted microscopic analysis; assay type: functional, cell-based
Caco-2 [10] = assay: Induction of apoptosis in human Caco-2 cells assessed as late apoptotic cells by measuring orange to red patch incubated at 0.11 uM for 72 hrs by acridine orange-ethidium bromide dual staining based fluorescence microscopic analysis; assay type: functional, cell-based
Caco-2 [11] = assay: Anticancer activity against human Caco-2 cells assessed as losing contact with neighbouring cells incubated at 0.11 uM for 72 hrs by phase contrast inverted microscopic analysis; assay type: functional, cell-based
HeLa [12] = assay: Anticancer activity against human HeLa cells assessed as losing contact with neighbouring cells incubated at 0.11 uM for 72 hrs by phase contrast inverted microscopic analysis; assay type: functional, cell-based
Caco-2 [13] = assay: Induction of apoptosis in human Caco-2 cells assessed as total apoptotic cells incubated at 0.11 uM for 72 hrs by annexin V-FITC based propidium iodide dual staining assay (reference value: 0.04 +/- 0.005%); assay type: functional
Caco-2 [14] = assay: Anticancer activity against human Caco-2 cells assessed as smaller cells incubated at 0.11 uM for 72 hrs by phase contrast inverted microscopic analysis; assay type: functional, cell-based
MDA-MB-231 = assay: Anticancer activity against human MDA-MB-231 cells incubated for 24 hrs by MTT assay; assay type: functional, cell-based; conditions: MDA-MB-231, 24 h
HeLa [15] = assay: Anticancer activity against human HeLa cells assessed as round cells incubated at 0.11 uM for 72 hrs by phase contrast inverted microscopic analysis; assay type: functional, cell-based
dsDNA = assay: Induction of damage in dsDNA (unknown origin) assessed as disrupted by DNA by measuring decrease in fluorescence intensity at 100 uM incubated for 2.5 hrs by EvaGreen based fluorescence plate reader analysis; assay type: nucleic-acid assay
Calf thymus DNA = assay: Induction of calf thymus DNA damage assessed as disrupted by DNA by measuring decrease in fluorescence intensity by EvaGreen based fluorescence plate reader analysis; assay type: nucleic-acid assay; conditions: Bos taurus; dose <= 500.0 µM
HepG2 [16] = assay: Induction of apoptosis in human HepG2 cells assessed as early apoptotic cells incubated at 0.11 uM for 72 hrs by annexin V-FITC based propidium iodide dual staining assay (reference value: 1.74%); assay type: functional
MCF7 [17] = assay: Induction of apoptosis in human MCF7 cells assessed as late apoptotic cells by measuring orange to red patch incubated at 0.11 uM for 72 hrs by acridine orange-ethidium bromide dual staining based fluorescence microscopic analysis; assay type: functional, cell-based
HepG2 [18] = assay: Anticancer activity against human HepG2 cells assessed as round cells incubated at 0.11 uM for 72 hrs by phase contrast inverted microscopic analysis; assay type: functional, cell-based
HeLa [19] = assay: Induction of apoptosis in human HeLa cells assessed as early apoptotic cells incubated at 0.11 uM for 72 hrs by annexin V-FITC based propidium iodide dual staining assay (reference value: 2.77%); assay type: functional
MCF7 [20] = assay: Anticancer activity against human MCF7 cells assessed as losing contact with neighbouring cells incubated at 0.11 uM for 72 hrs by phase contrast inverted microscopic analysis; assay type: functional, cell-based
MCF7 [21] = assay: Induction of apoptosis in human MCF7 cells assessed as viable cells incubated at 0.11 uM for 72 hrs by annexin V-FITC based propidium iodide dual staining assay (reference value: 99.9%); assay type: functional; conditions: read-out: Activity
Caco-2 [22] = assay: Anticancer activity against human Caco-2 cells assessed as cell shrinkage incubated at 0.11 uM for 72 hrs by phase contrast inverted microscopic analysis; assay type: functional, cell-based
MCF7 [23] = assay: Induction of apoptosis in human MCF7 cells assessed as caspase3/7 activation at 0.017 uM using caspase-glo 3/7 as substrate relative to control; assay type: functional
MCF7 [24] = assay: Induction of oxidative stress in human MCF7 cells assessed as cell death by measuring redox alteration fluorescence incubated at 0.098 uM for 72 hrs in presence of dihydro dichlorofluorescein diacetate by DCFH-DA based flow cytometric analysis relative to control; assay type: functional
HepG2 [25] = assay: Induction of apoptosis in human HepG2 cells assessed as late apoptotic cells incubated at 0.017 uM for 72 hrs by annexin V-FITC based propidium iodide dual staining assay (reference value: 0.66%); assay type: functional
HeLa [26] = assay: Induction of apoptosis in human HeLa cells assessed as viable cells by measuring green uniform patch incubated at 0.017 uM for 72 hrs by acridine orange-ethidium bromide dual staining based fluorescence microscopic analysis; assay type: functional, cell-based
Caco-2 [27] = assay: Induction of apoptosis in human Caco-2 cells assessed as early apoptotic cells incubated at 0.017 uM for 72 hrs by annexin V-FITC based propidium iodide dual staining assay (reference value: 0.07%); assay type: functional
MCF7 [28] = assay: Induction of apoptosis in human MCF7 cells assessed as viable cells incubated at 0.098 uM for 72 hrs by annexin V-FITC based propidium iodide dual staining assay (reference value: 99.9%); assay type: functional; conditions: read-out: Activity
HepG2 [29] = assay: Anticancer activity against human HepG2 cells assessed as round cells incubated at 0.098uM for 72 hrs by phase contrast inverted microscopic analysis; assay type: functional, cell-based
MCF7 [30] = assay: Induction of apoptosis in human MCF7 cells assessed as early apoptotic cells by measuring bright green patch incubated at 0.098 uM for 72 hrs by acridine orange-ethidium bromide dual staining based fluorescence microscopic analysis; assay type: functional, cell-based
HeLa [31] = assay: Induction of apoptosis in human HeLa cells assessed as pro-oxidant effect by measuring free radical generation measured at 0.098 uM after 72 hrs; assay type: functional, cell-based
HepG2 [32] = assay: Anticancer activity against human HepG2 cells assessed as losing contact with neighbouring cells incubated at 0.098uM for 72 hrs by phase contrast inverted microscopic analysis; assay type: functional, cell-based
HeLa [33] = assay: Induction of apoptosis in human HeLa cells assessed as necrotic cells incubated at 0.098 uM for 72 hrs by annexin V-FITC based propidium iodide dual staining assay (reference value: 0%); assay type: functional
MCF7 [34] = assay: Induction of apoptosis in human MCF7 cells assessed as necrotic cells incubated at 0.098 uM for 72 hrs by annexin V-FITC based propidium iodide dual staining assay (reference value: 0.03%); assay type: functional

For `NS(=O)(=O)c1ccc(-n2cc(CN3C(=O)CN(/N=C/c4ccc([N+](=O)[O-])o4)C3=O)nn2)cc1`, the Activity (Caco-2 [1]) was “Active”, the Activity (HepG2 [2]) was “Active” and the Activity (MCF7 [3]) was “Active”. The Activity (Caco-2 [4]) was “Active”, the Activity (HepG2 [5]) was “Active” and the Activity (HepG2 [6]) was “Active”. For the same molecule, the Activity (Caco-2 [7]) was 22.21%.
In the case of `C#CCN1C(=O)CN(/N=C/c2ccc([N+](=O)[O-])o2)C1=O`, the Activity (HepG2 [8]) is reported as “Active”, the Activity (Caco-2 [9]) is reported as “Active” and the Activity (Caco-2 [10]) is reported as “Active”. For the same molecule, the Activity (Caco-2 [11]) was “Active”, the Activity (HeLa [12]) was “Active” and the Activity (Caco-2 [13]) was 45.81%. The Activity (Caco-2 [14]) was “Active”, the IC50 (MDA-MB-231) was 242 µM and the Activity (HeLa [15]) was “Active”. The Activity (dsDNA) was “Active”, the Activity (Calf thymus DNA) was “Dose-Dependent Effect” and the Activity (HepG2 [16]) was 4.8%. The Activity (MCF7 [17]) was “Active”, the Activity (HepG2 [18]) was “Active” and the Activity (HeLa [19]) was 9.44%. The Activity (MCF7 [20]) was “Active”, the viability at 0.11 µM (MCF7 [21]) was 53.7% and the Activity (Caco-2 [22]) was “Active”.
`O=c1[nH]cc(F)c(=O)[nH]1` [FLUOROURACIL] showed an Activity (MCF7 [23]) of 12%, an Activity (MCF7 [24]) of 4.24% and an Activity (HepG2 [25]) of 2.34%. For the same molecule, the Activity (HeLa [26]) was “Active” and the Activity (Caco-2 [27]) was 6.74%.
With `O=C(CN1C(=O)CN(/N=C/c2ccc([N+](=O)[O-])o2)C1=O)c1ccc(Cl)cc1` the viability at 0.098 µM (MCF7 [28]) was 63.6%, the Activity (HepG2 [29]) was “Active” and the Activity (MCF7 [30]) was “Active”. For the same molecule, the Activity (HeLa [31]) was “Active”, the Activity (HepG2 [32]) was “Active” and the Activity (HeLa [33]) was 1.16%. For the same molecule, the Activity (MCF7 [34]) was 3.18%.
